Measurements taken from US10526320B2, “Pyrrolidine derivatives as PPAR agonists” (GUANGDONG RAYNOVENT BIOTECH CO., LTD., priority 2016, dated 2020).
pEC50: −log10 of the molar value. Read-outs that look alike come from different tables or passages of the source.

What was measured:
Assay type in all cases: cell-based
PPAR Alpha = target: T1, PPAR Alpha (Homo sapiens, UniProt Q07869); assay: PathHunter NHR protein interaction / nuclear translocation agonist test, PPAR Alpha; conditions: for pEC50: agonist mode, read-out: PPAR Alpha EC50; for Emax: read-out: PPAR Alpha Maximum Activation Response %; for EC50: PPAR Alpha EC50 nM
T1 sequence (Q07869 1-468): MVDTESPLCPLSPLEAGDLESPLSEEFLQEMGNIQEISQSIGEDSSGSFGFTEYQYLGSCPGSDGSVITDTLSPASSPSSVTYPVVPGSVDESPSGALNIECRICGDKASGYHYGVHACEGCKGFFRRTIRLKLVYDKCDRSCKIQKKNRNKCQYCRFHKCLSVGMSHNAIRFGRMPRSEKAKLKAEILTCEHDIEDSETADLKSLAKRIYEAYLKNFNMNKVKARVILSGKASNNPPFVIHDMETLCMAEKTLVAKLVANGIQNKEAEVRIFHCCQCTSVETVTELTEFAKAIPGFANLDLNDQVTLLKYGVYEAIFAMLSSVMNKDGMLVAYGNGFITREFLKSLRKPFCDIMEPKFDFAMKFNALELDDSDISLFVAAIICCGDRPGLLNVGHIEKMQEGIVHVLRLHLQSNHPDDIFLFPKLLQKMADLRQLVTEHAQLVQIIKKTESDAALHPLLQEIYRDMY

PPAR Delta = target: T2, PPAR Delta (Homo sapiens, UniProt Q03181); assay: PathHunter NHR protein interaction / nuclear translocation agonist test, PPAR Delta; conditions: for pEC50: agonist mode, read-out: PPAR Delta EC50; for Emax: read-out: PPAR Delta Maximum Activation Response %
T2 sequence (Q03181 1-441): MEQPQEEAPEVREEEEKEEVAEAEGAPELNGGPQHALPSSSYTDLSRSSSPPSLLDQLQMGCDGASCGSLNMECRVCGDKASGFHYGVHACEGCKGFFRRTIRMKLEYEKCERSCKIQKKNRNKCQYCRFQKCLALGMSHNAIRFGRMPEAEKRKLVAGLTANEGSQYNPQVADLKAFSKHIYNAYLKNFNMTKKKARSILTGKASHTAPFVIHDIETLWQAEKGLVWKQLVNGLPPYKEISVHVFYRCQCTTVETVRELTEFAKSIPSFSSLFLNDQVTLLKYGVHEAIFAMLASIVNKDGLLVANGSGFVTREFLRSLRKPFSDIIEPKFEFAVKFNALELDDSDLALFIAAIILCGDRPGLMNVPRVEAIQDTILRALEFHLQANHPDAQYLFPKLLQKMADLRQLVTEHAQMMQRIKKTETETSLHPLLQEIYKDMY

PPAR Gamma = target: T3, PPAR Gamma (Homo sapiens, UniProt P37231); assay: PathHunter NHR protein interaction / nuclear translocation agonist test, PPAR Gamma; conditions: for pEC50: agonist mode, read-out: PPAR Gamma EC50; for Emax: read-out: PPAR Gamma Maximum Activation Response %; for EC50: PPAR Gamma EC50 nM
T3 sequence (P37231 1-505): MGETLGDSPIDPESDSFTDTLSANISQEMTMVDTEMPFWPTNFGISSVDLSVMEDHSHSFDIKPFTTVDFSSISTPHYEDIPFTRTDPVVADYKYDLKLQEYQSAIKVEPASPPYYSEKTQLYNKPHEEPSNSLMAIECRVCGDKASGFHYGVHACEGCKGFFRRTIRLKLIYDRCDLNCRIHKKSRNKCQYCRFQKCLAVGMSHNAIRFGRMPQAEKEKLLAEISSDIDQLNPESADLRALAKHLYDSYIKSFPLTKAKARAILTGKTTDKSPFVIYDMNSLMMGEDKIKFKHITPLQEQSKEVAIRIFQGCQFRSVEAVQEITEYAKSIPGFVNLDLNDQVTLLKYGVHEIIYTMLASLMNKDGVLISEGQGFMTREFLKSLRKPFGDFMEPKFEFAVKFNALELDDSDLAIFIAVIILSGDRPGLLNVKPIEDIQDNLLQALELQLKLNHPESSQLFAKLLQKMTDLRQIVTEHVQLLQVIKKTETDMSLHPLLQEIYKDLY

[1] = relative to known PPARδ agonist L-165,041 = 100%
[2] = relative to known PPARγ agonist Troglitazone = 100%

pEC50 (PPAR Alpha) | Emax (PPAR Delta; [1]) | Emax (PPAR Gamma; [2]) | Structure (SMILES) | Emax (PPAR Alpha) | pEC50 (PPAR Delta) | pEC50 (PPAR Gamma) | Emax (PPAR Delta) | Emax (PPAR Gamma) | EC50 (PPAR Alpha) | EC50 (PPAR Delta; PPAR Delta EC50 nM) | EC50 (PPAR Gamma) | PPAR Alpha Maximum Activation Response % (PPAR Alpha) | PPAR Delta Maximum Activation Response % (PPAR Delta)
> 7.00 | 80 to 100% | 80 to 100% | Cc1cc(CCC2CN(C(=O)Oc3ccccc3)CC2C(=O)c2ccc(F)cc2)cc(C)c1OC(C)(C)C(=O)O (single isomer, unassigned) [Compound 63] | 80 to 100% | > 7.00 | 6.60 to 6.70 | – | – | – | – | – | – | –
6.70 to 6.82 | 80 to 100% | 80 to 100% | CSc1ccc(C(=O)C2CN(C(=O)Oc3ccccc3)CC2Cc2ccc(OC(C)(C)C(=O)O)c(C)c2)cc1 (single isomer, unassigned) [Compound 77] | 80 to 100% | 6.70 to 6.82 | < 6.60 | – | – | – | – | – | – | –
– | – | – | CSc1ccc(C(=O)[C@H]2CN(C(=O)Oc3ccc(C)nc3)C[C@@H]2Cc2cc(C)c(OC(C)(C)C(=O)O)c(C)c2)cc1 (racemic) [Compound 53] | 80 to 100% | – | – | 50 to 80% | 80 to 100% | 100 to 150 nM | 100 to 150 nM | > 250 nM | – | –
> 7.00 | 80 to 100% | 80 to 100% | CSc1ccc(C(=O)C2CN(C(=O)Oc3ccccc3)CC2CCc2ccc(OC(C)(C)C(=O)O)c(F)c2)cc1 (single isomer, unassigned) [Compound 82] | 80 to 100% | 6.82 to 7.00 | 6.60 to 6.70 | – | – | – | – | – | – | –
> 7.00 | 80 to 100% | 80 to 100% | Cc1cc(CC2CN(C(=O)Oc3ccccc3)CC2C(=O)c2ccc(Cl)cc2)cc(C)c1OC(C)(C)C(=O)O (single isomer, unassigned) [Compound 70] | 80 to 100% | > 7.00 | 6.70 to 6.82 | – | – | – | – | – | – | –
– | – | – | CSc1ccc(C(=O)C2CN(C(=O)Oc3ccccc3)CC2Cc2cc(C)c(OC(C)(C)C(=O)O)c(C)c2)cc1 (centres unmarked) [Compound 26] | – | > 7.00 | – | 50 to 80% | – | < 100 nM | – | > 250 nM | – | –
> 7.00 | 80 to 100% | 80 to 100% | CSc1ccc(C(=O)[C@H]2CN(C(=O)OC3CCC(C)CC3)C[C@@H]2Cc2cc(C)c(OC(C)(C)C(=O)O)c(C)c2)cc1 (mixture of isomers) [Compound 54] | 80 to 100% | 6.82 to 7.00 | 6.60 to 6.70 | – | – | – | – | – | – | –
> 7.00 | 80 to 100% | 80 to 100% | Cc1cc(CC2CN(C(=O)Oc3ccccc3)CC2C(=O)c2ccc(F)cc2)cc(C)c1OC(C)(C)C(=O)O (single isomer, unassigned) [Compound 69] | 80 to 100% | > 7.00 | 6.70 to 6.82 | – | – | – | – | – | – | –

Structure (SMILES) | pEC50 (PPAR Alpha) | Emax (PPAR Delta; [1]) | Emax (PPAR Gamma; [2]) | Emax (PPAR Alpha) | pEC50 (PPAR Delta) | pEC50 (PPAR Gamma) | Emax (PPAR Delta) | Emax (PPAR Gamma) | EC50 (PPAR Alpha) | EC50 (PPAR Delta; PPAR Delta EC50 nM) | EC50 (PPAR Gamma) | PPAR Alpha Maximum Activation Response % (PPAR Alpha) | PPAR Delta Maximum Activation Response % (PPAR Delta)
CSc1ccc(C(=O)C2CN(C(=O)Oc3ccc(Cl)cc3)CC2c2cc(C)c(OC(C)(C)C(=O)O)c(C)c2)cc1 (single isomer, unassigned) [Compound 14] | > 7.00 | – | – | – | > 7.00 | < 6.60 | – | – | – | – | – | – | –
CSc1ccc(C(=O)C2CN(C(=O)OC(C)C)CC2CCc2cc(C)c(OC(C)(C)C(=O)O)c(C)c2)cc1 (single isomer, unassigned) [Compound 58] | 6.82 to 7.00 | – | – | 80 to 100% | > 7.00 | 6.60 to 6.70 | 50 to 80% | 50 to 80% | – | – | – | – | –
CSc1ccc(C(=O)C2CN(C(=O)Oc3ccc(Cl)cc3)CC2c2cc(C)c(OC(C)(C)C(=O)O)c(C)c2)cc1 (single isomer, unassigned) [Compound 13] | > 7.00 | – | – | 50 to 80% | > 7.00 | < 6.60 | 50 to 80% | 80 to 100% | – | – | – | – | –
COC(=O)N1CC(CCc2cc(C)c(OC(C)(C)C(=O)O)c(C)c2)C(C(=O)c2ccc(SC)cc2)C1 (single isomer, unassigned) [Compound 57] | > 7.00 | – | – | 80 to 100% | > 7.00 | 6.60 to 6.70 | 50 to 80% | 50 to 80% | – | – | – | – | –
Cc1cc(CC[C@H]2CN(C(=O)Oc3ccccc3)C[C@@H]2C(=O)c2ccc([S+](C)[O-])cc2)cc(C)c1OC(C)(C)C(=O)O (mixture of isomers) [Compound 67] | – | – | 80 to 100% | 80 to 100% | < 6.60 | < 6.60 | 80 to 100% | – | – | – | – | – | –
Cc1cc(CC[C@H]2CN(C(=O)Oc3ccccc3)C[C@@H]2C(=O)c2ccc(S(C)(=O)=O)cc2)cc(C)c1OC(C)(C)C(=O)O (racemic) [Compound 68] | – | – | 80 to 100% | 80 to 100% | < 6.60 | < 6.60 | 80 to 100% | – | – | – | – | – | –
CSc1ccc(C(=O)C2CN(C(=O)Oc3ccc(Cl)cc3)CC2c2cccc(OC(C)(C)C(=O)O)c2)cc1 (single isomer, unassigned) [Compound 34] | > 7.00 | – | – | – | < 6.60 | < 6.60 | – | 80 to 100% | – | – | – | I (key: 100% ≥ I ≥ 80%; 80% ≥ II ≥ 50%; III < 50%) | III (key: 100% ≥ I ≥ 80%; 80% ≥ II ≥ 50%; III < 50%)
